Source: US20150315241A1, “Antibiotic Peptides” (priority 2007, published 2015)
In brackets after ≈: the same amount, converted by molar mass. Where two headings read alike, the source gives them in different places. Where a SMILES comes first, the peptide text is derived from it. Where no end group is shown, it is not given here. [ ]: non-standard residue; d: D form. The star is where a group is joined. Hyp = O=C(O)[C@@H]1C[C@@H](O)CN1; NMeL = CN[C@@H](CC(C)C)C(=O)O; Orn = NCCC[C@H](N)C(=O)O; For = O=C*

Columns and labels:
K. pneumonia 681 = assay type: cell-based, Klebsiella pneumoniae
Description: (§1) The minimal inhibition concentrations (MIC) of the apidaecin-derived peptides and peptide-derivatives were determined by a growth inhibition assay using a serial peptide dilution in sterilized round-bottom 96-well plates (polystyrene, U-bottom, Greiner Bio-One GmbH) with a final volume of 100 μL per well. The bacteria, e.g., E. coli BL21 A1, were grown in nutrient broth (NB, Carl Roth GmbH+Co. KG, Karlsruhe, Germany) at 37° C. over night. To each well of the 96-well plate, 50 μL of the overnight culture adjusted to 5×10^6 CFU/mL in 1% TSB were added. Lyophilized peptides and peptidomimetics were dissolved in 1% TSB (tryptic soy broth) or water to give a final concentration of 250 μg/mL. Fifty μL of the peptide or peptidomimetics solution were added to the first well of a row on the plate and mixed. Fifty μL of the first well containing the peptide solution were transferred to the second well, mixed and again 50 μL transferred to the next well and so on. Thereby, a two-fold dilution series was obtained starting at 250 μg/mL in the first well down to 120 ng/mL in the 12th well of a row giving a final peptide or peptidomimetics concentration from 125 μg/mL (well 1) to 60 ng/mL (well 12). Plates were incubated at 37° C. for 20 hrs. The absorbance was measured at 595 nm using a TECAN micro plate spectrophotometer (Tecan, Germany). All peptides and peptidomimetics were measured in triplicates. Sterilized water was used as a negative control.
(§2) The bacteria strains were tested: • Eschericha coli 1103, 10233, BL 21 AI, DC 2, • Klebsiella pneumoniae 681, • Micrococcus luteus ATCC 10240, • Mycobacterium vaccae • Bactillus subtillis 347.

M. luteus ATCC 10240 = assay type: cell-based, Micrococcus luteus
Summary of the method: (§3)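 Two-fold serial dilution in 1% TSB, final 125 μg/mL to 60 ng/mL; inoculum 5×10^6 CFU/mL (before 1:1 mixing with peptide). Incubated 20 hrs at 37° C., growth read as absorbance at 595 nm, in triplicate with sterile water as negative control.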

S. typhi S5 = assay type: cell-based, Salmonella typhi
Summary of the method: (§4)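 Bacteria grown overnight in nutrient broth at 37° C were diluted to 5×10^6 CFU/mL in 1% TSB and exposed to peptides serially halved from 125 μg/mL to 60 ng/mL final. After 20 h at 37° C, A595 gave the MIC, measured in triplicate.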

E. coli 10233 = assay type: cell-based, Escherichia coli
Description: as §1, §2

E. coli BL 21 AI = experiment: Growth inhibition assay (MIC); assay type: cell-based, Escherichia coli; details: 1% TSB, 37° C., 20 hrs
Summary of the method: as §3

[1] = test system: K. Pneumonia K6, ATCC 700603; experiment: Growth inhibition assay (MIC); assay type: cell-based, Klebsiella pneumoniae; details: multidrug resistant strain; 1% TSB, 37° C., 20 hrs
Summary of the method: as §4

K. Pneumonia 123132 = experiment: Growth inhibition assay (MIC); assay type: cell-based, Klebsiella pneumoniae; details: multidrug resistant strain; 1% TSB, 37° C., 20 hrs
Summary of the method: as §4

E. coli D31 = assay type: cell-based, Escherichia coli
Summary of the method: as §4

[2] = test system: S. enterica subsp. Enterica serovar. typhi G10215 ATCC 700408; assay type: cell-based, Salmonella enterica
Summary of the method: as §4

E. coli 45849 = experiment: Growth inhibition assay (MIC); assay type: cell-based, Escherichia coli; details: multidrug resistant strain; 1% TSB, 37° C., 20 hrs
Summary of the method: as §4

B. subtilis 347 = assay type: cell-based, Bactillus subtillis
Description: as §1, §2

E. coli 1103 = assay type: cell-based, Escherichia coli
Description: as §1, §2

[3] = test system: R. radiobatter ATCC 15955; experiment: Growth inhibition assay (MIC); assay type: cell-based, Rhizobium radiobacter; details: multidrug resistant strain; 1% TSB, 37° C., 20 hrs
Description: as §1
The following multidrug resistant bacteria strains were tested: • Eschericha coli 45849 and D31, • Klebsiella pneumoniae 123132 and K6, • Salmonella typhi S5 and Salmonella enterica subsp. enterica serovar Typhimurium (ATCC 700408), • Rhizobium radiobacter (ATCC 15955 deposited as Agrobacterium tumefaciens).

[4] = multidrug resistant strain, 1% TSB, 37° C., 20 hrs

Row | Compound | MIC E. coli BL 21 AI (E. coli BL 21 AI) | MIC K. Pneumonia K6, ATCC 700603 [1] | MIC K. Pneumonia 123132 (K. Pneumonia 123132) | MIC E. coli 45849 (E. coli 45849) | MIC K. pneumonia 681 (K. pneumonia 681; 20 h) | MIC M. luteus ATCC 10240 (M. luteus ATCC 10240; ATCC 10240, 20 h) | MIC E. coli 1103 (E. coli 1103; 1103, 20 h) | MIC E. coli 10233 (E. coli 10233; 10233, 20 h) | MIC E. coli D31 (E. coli D31; D31, 20 h) | MIC S. enterica subsp. Enterica serovar. typhi G10215 ATCC 700408 ([2]; ATCC 700408, 20 h) | MIC B. subtilis 347 (B. subtilis 347; 347, 20 h) | MIC S. typhi S5 (S. typhi S5; S5, 20 h) | also measured
1 | 85 (GNNRPVYIPQPRPPHPRL) [compound 85] | 0.24 µg/mL | 64 µg/mL | 16 µg/mL | 2 µg/mL |  |  |  |  |  |  |  |  | MIC K. pneumonia 681 (K. pneumonia 681; 1% TSB, 37° C., 20 hrs): 31.25 µg/mL; MIC M. luteus ATCC 10240 (M. luteus ATCC 10240; 1% TSB, 37° C., 20 hrs): 15.63 µg/mL; MIC S. typhi S5 (S. typhi S5; [4]): 0.5 µg/mL; MIC E. coli 10233 (E. coli 10233; 1% TSB, 37° C., 20 hrs): 1.95 µg/mL; MIC E. coli D31 (E. coli D31; [4]): 16 µg/mL; MIC S. enterica subsp. Enterica serovar. typhi G10215 ATCC 700408 [2, 4]: 0.5 µg/mL; MIC B. subtilis 347 (B. subtilis 347; 1% TSB, 37° C., 20 hrs): >125 µg/mL
2 | 135 (PEG3000-[Orn]NNRPVYIPRPRPPHPRL-NH2) [compound 135] | >125 µg/mL |  |  |  |  |  |  |  |  |  |  |  | MIC K. pneumonia 681 (K. pneumonia 681; 1% TSB, 37° C., 20 hrs): >125 µg/mL; MIC M. luteus ATCC 10240 (M. luteus ATCC 10240; 1% TSB, 37° C., 20 hrs): 8 µg/mL; MIC E. coli 1103 (E. coli 1103; 1% TSB, 37° C., 20 hrs): >125 µg/mL; MIC E. coli 10233 (E. coli 10233; 1% TSB, 37° C., 20 hrs): >125 µg/mL; MIC B. subtilis 347 (B. subtilis 347; 1% TSB, 37° C., 20 hrs): >125 µg/mL
3 | CC[C@H](C)[C@H](NC(=O)[C@H](Cc1ccc(O)cc1)NC(=O)[C@@H](NC(=O)[C@@H]1CCCN1C(=O)[C@H](CCCNC(=N)N)NC(=O)[C@H](CC(N)=O)NC(=O)[C@H](CC(N)=O)NC(=O)CN)C(C)C)C(=O)N1CCC[C@H]1C(=O)N[C@@H](CCC(N)=O)C(=O)N1CCC[C@H]1C(=O)N[C@@H](CCCNC(=N)N)C(=O)N1CCC[C@H]1C(=O)N1CCC[C@H]1C(=O)N[C@@H](Cc1c[nH]cn1)C(=O)N1CCC[C@H]1C(=O)N[C@@H](CCCNC(=N)N)C(=O)N(C)[C@@H](CC(C)C)C(N)=O [compound 33] (H-GNNRPVYIPQPRPPHPR[NMeL]-NH2) | 15.63 µg/mL (≈ 7.37 µM) | >128 µg/mL |  |  | >125 µg/mL | 31.25 µg/mL (≈ 14.7 µM) | 62.5 µg/mL (≈ 29.5 µM) | 15.63 µg/mL (≈ 7.37 µM) | 32 µg/mL (≈ 15.1 µM) | 8 µg/mL (≈ 3.77 µM) | >125 µg/mL |  | 
4 | CC[C@H](C)[C@H](NC(=O)[C@H](Cc1ccc(O)cc1)NC(=O)[C@@H](NC(=O)[C@@H]1CCCN1C(=O)[C@H](CCCNC(=N)N)NC(=O)[C@H](CC(N)=O)NC(=O)[C@H](CC(N)=O)NC(=O)[C@H](CCCN)NC(C)=O)C(C)C)C(=O)N1CCC[C@H]1C(=O)N[C@@H](CCCNC(=N)N)C(=O)N1C[C@H](O)C[C@H]1C(=O)N[C@@H](CCCNC(=N)N)C(=O)N1CCC[C@H]1C(=O)N1CCC[C@H]1C(=O)N[C@@H](Cc1c[nH]cn1)C(=O)N1CCC[C@H]1C(=O)N[C@@H](CCCNC(=N)N)C(=O)N[C@@H](CC(C)C)C(N)=O [compound 40] (Ac-[Orn]NNRPVYIPR[Hyp]RPPHPRL-NH2) |  | 16 µg/mL (≈ 7.11 µM) | 4 µg/mL (≈ 1.78 µM) | 1 µg/mL (≈ 0.444 µM) | 3.91 µg/mL (≈ 1.74 µM) |  | 3.91 µg/mL (≈ 1.74 µM) | 1.95 µg/mL (≈ 0.866 µM) | 8 µg/mL (≈ 3.55 µM) | 4 µg/mL (≈ 1.78 µM) | 125 µg/mL (≈ 55.5 µM) | <0.5 µg/mL | MIC R. radiobatter ATCC 15955 [3]: 0.33 µg/mL (≈ 0.147 µM)
5 | CC[C@H](C)[C@H](NC(=O)[C@H](Cc1ccc(O)cc1)NC(=O)[C@@H](NC(=O)[C@@H]1CCCN1C(=O)[C@H](CCCNC(=N)N)NC(=O)[C@H](CC(N)=O)NC(=O)[C@H](CC(N)=O)NC(=O)[C@@H](N)CCCN)C(C)C)C(=O)N1CCC[C@H]1C(=O)N[C@@H](CCCNC(=N)N)C(=O)N1C[C@H](O)C[C@H]1C(=O)N[C@@H](CCCNC(=N)N)C(=O)N1CCC[C@H]1C(=O)N1CCC[C@H]1C(=O)N[C@@H](Cc1c[nH]cn1)C(=O)N1CCC[C@H]1C(=O)N[C@@H](CCCNC(=N)N)C(=O)N[C@@H](CC(C)C)C(N)=O [compound 45] (H-[Orn]NNRPVYIPR[Hyp]RPPHPRL-NH2) |  | 4 µg/mL (≈ 1.81 µM) | 4 µg/mL (≈ 1.81 µM) | 1 µg/mL (≈ 0.453 µM) | 7.81 µg/mL (≈ 3.54 µM) |  | 7.81 µg/mL (≈ 3.54 µM) | 1.95 to 3.91 µg/mL | 8 µg/mL (≈ 3.62 µM) | 2 µg/mL (≈ 0.906 µM) | 62.5 µg/mL (≈ 28.3 µM) | <0.5 µg/mL | MIC R. radiobatter ATCC 15955 [3]: 0.65 µg/mL (≈ 0.294 µM)
6 | CC[C@H](C)[C@H](NC(=O)[C@H](Cc1ccc(O)cc1)NC(=O)[C@@H](NC(=O)[C@@H]1CCCN1C(=O)[C@H](CCCNC(=N)N)NC(=O)[C@H](CC(N)=O)NC(=O)[C@H](CC(N)=O)NC(=O)CNC=O)C(C)C)C(=O)N1CCC[C@H]1C(=O)N[C@@H](CCC(N)=O)C(=O)N1CCC[C@H]1C(=O)N[C@@H](CCCNC(=N)N)C(=O)N1CCC[C@H]1C(=O)N1CCC[C@H]1C(=O)N[C@@H](Cc1c[nH]cn1)C(=O)N1CCC[C@H]1C(=O)N[C@@H](CCCNC(=N)N)C(=O)N[C@@H](CC(C)C)C(N)=O [compound 84] (For-GNNRPVYIPQPRPPHPRL-NH2) | 1.95 µg/mL (≈ 0.913 µM) | 32 µg/mL (≈ 15 µM) | 32 µg/mL (≈ 15 µM) | 0.5 µg/mL (≈ 0.234 µM) | 62.5 µg/mL (≈ 29.3 µM) | 3.91 µg/mL (≈ 1.83 µM) |  | 1.95 µg/mL (≈ 0.913 µM) | 1 µg/mL (≈ 0.468 µM) | 0.25 µg/mL (≈ 0.117 µM) | >125 µg/mL | 0.25 µg/mL (≈ 0.117 µM) | 
7 | GNNRPVYIPQPRPPHPRL [compound 2] | 0.98 µg/mL | 64 µg/mL |  |  | 62.5 µg/mL | 31.25 µg/mL | 7.81 µg/mL | 1.95 µg/mL | 32 µg/mL | 2 µg/mL | >125 µg/mL |  | 
8 | H-LRPHPPRPQPIYVPRNNG-NH2 [compound 141] | >125 µg/mL |  |  |  | >125 µg/mL | >125 µg/mL | >125 µg/mL | >125 µg/mL |  |  | >125 µg/mL |  | 
